The values below are quoted from earlier work in patent US7056534B2, “Coated potassium chloride granules and tablets” (Upsher-Smith Laboratories, Inc., priority 2001, dated 2006).

Molecules are shown by their SMILES. Where two headings read alike, the source gives them in different places.

On to `[Cl-].[K+]` [Potassium chloride], for which the Solubility entry is, setting by setting: (acetone) “insoluble”; (ether) “insoluble”. Further, the “Volume of solvent in which 1 gram dissolves” value reads like this: (boiling water) 1.8 mL; (ethyl alcohol) “about 250 ml”; (glycerol) 14 mL; (water) 2.8 mL.
